Earlier results as cited in patent US12458707B2, “Targeted delivery of immunoregulatory drugs” (The Brigham and Women's Hospital, Inc., priority 2014, dated 2025).

System: NOD mice
Conditions: 2.5 mg/kg/day every other day

Compound: C=CC[C@@H]1/C=C(\C)C[C@H](C)C[C@H](OC)[C@H]2O[C@@](O)(C(=O)C(=O)N3CCCC[C@H]3C(=O)O[C@H](/C(C)=C/[C@@H]3CC[C@@H](O)[C@H](OC)C3)[C@H](C)[C@@H](O)CC1=O)[C@H](C)C[C@@H]2OC [TAC, Tacrolimus]
- suppression of T1D: efficiently suppress T1D
